This note sets out measurements from ChEMBL document CHEMBL3351798, “Discovery of the CCR1 antagonist, BMS-817399, for the treatment of rheumatoid arthritis” (J Med Chem, 2014).

Data set [1] deals with T1, Chemokine (C-C motif) receptor 1 (Canis lupus familiaris, UniProt Q2V0Q7).
T1 sequence (Q2V0Q7 whole entry): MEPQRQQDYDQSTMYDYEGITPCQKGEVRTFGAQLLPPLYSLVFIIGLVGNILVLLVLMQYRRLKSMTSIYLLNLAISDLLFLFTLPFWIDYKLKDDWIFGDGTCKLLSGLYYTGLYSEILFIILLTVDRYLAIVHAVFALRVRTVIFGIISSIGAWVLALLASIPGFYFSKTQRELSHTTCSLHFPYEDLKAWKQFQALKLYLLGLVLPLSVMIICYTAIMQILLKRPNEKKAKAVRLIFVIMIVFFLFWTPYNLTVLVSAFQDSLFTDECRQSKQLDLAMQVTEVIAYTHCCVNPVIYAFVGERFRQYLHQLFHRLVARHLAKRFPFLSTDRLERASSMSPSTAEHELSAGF
In words: Displacement of [125I]hMIP-1alpha from dog PBMC CCR1.

The target in data set [2] is T2, C-C chemokine receptor type 1 (Homo sapiens, UniProt P32246).
T2 sequence (P32246 whole entry): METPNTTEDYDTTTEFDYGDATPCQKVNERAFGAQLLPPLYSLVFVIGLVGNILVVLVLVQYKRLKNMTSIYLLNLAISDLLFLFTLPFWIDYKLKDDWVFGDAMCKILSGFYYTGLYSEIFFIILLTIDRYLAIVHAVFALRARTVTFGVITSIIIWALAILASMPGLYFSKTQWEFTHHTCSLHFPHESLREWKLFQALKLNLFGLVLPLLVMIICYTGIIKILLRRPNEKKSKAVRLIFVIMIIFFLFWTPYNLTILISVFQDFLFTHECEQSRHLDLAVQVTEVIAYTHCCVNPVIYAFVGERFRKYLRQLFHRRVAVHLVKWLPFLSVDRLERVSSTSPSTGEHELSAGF
In words: Antagonist activity at CCR1 receptor in human whole blood assessed as blocked of LKN1-mediated CD11b upregulation preincubated for 1 hr.

In data set [3] the target is Voltage-gated inwardly rectifying potassium channel KCNH2 (Homo sapiens, UniProt Q12809). Kind of data set: Inhibition of human ERG.
Voltage-gated inwardly rectifying potassium channel KCNH2, sequence (Q12809 whole entry): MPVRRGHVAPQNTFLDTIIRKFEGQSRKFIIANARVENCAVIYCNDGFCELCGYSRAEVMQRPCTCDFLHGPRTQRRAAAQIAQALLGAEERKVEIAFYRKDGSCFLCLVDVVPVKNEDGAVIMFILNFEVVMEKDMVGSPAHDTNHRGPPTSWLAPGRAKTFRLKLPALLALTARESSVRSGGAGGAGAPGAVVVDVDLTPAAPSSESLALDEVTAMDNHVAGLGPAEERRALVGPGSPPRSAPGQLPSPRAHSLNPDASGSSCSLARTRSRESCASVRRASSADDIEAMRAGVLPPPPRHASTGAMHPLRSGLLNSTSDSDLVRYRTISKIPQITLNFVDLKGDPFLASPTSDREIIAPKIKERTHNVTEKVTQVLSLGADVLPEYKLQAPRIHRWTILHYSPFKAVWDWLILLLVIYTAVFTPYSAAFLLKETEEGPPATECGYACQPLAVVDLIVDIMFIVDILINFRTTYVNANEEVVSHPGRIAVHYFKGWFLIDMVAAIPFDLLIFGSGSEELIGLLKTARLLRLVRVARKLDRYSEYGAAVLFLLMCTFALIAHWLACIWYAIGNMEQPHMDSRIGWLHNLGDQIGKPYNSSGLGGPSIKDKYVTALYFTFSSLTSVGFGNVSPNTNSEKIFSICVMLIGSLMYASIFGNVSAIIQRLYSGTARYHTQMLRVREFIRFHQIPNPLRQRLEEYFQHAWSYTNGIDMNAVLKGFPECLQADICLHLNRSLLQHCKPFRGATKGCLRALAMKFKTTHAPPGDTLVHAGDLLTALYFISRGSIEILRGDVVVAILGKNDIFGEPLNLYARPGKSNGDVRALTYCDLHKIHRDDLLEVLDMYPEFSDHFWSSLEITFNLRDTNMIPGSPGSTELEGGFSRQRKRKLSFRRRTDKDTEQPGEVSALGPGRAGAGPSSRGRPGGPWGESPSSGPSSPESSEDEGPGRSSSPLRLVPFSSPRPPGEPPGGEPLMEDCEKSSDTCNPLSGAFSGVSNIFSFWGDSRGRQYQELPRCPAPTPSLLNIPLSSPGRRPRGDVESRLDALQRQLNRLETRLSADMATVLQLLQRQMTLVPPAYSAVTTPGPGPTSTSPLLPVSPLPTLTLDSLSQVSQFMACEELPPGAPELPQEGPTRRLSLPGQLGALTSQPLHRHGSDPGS
Data set [4] has as its target T3, C-X-C chemokine receptor type 3 (Homo sapiens) (UniProt P49682).
T3 sequence (whole entry): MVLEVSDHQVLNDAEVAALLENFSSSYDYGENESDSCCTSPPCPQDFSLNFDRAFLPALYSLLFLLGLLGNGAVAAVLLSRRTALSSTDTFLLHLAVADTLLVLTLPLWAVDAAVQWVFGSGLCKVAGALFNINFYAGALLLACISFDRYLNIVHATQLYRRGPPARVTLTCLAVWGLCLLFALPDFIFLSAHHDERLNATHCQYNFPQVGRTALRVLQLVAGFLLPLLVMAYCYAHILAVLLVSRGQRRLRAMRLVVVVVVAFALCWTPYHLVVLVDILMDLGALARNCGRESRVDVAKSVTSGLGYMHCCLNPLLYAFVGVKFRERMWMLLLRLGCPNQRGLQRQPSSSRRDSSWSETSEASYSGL
Kind of data set: Binding affinity to CXCR3 receptor (unknown origin).

The target of data set [5] is T4, C-C chemokine receptor type 1 (Mus musculus, UniProt P51675).
T4 sequence (P51675 whole entry): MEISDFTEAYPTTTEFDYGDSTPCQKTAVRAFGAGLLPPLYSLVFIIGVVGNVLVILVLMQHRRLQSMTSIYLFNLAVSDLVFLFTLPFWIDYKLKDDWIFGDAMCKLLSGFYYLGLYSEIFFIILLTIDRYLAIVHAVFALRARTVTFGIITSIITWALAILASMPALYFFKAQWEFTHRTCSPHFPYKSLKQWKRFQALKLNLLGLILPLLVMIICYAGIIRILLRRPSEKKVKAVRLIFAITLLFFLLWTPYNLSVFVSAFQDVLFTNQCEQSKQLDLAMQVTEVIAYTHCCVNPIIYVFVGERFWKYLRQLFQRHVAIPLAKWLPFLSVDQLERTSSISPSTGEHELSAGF
In words: Displacement of [125I]hMIP-1alpha from mouse CCR1.

Data set [6] deals with T2, C-C chemokine receptor type 1. In words: Displacement of [125I]hMIP-1alpha from CCR1 in human PBMC.
Data set [7] addresses T5, C-C chemokine receptor type 3 (Homo sapiens) (UniProt P51677).
T5 sequence (whole entry): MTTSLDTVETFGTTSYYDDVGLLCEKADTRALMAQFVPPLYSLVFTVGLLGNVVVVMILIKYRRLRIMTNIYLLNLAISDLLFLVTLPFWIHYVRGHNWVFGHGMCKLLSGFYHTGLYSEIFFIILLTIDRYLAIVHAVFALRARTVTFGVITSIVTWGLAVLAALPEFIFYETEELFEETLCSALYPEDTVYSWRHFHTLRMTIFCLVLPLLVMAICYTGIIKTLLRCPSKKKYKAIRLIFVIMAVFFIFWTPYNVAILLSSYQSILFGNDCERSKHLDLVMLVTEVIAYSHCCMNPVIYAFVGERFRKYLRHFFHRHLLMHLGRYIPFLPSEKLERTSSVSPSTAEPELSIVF
In words: Binding affinity to CCR3 receptor (unknown origin).

A short description of data set [8]: Metabolic stability in mouse liver microsomes assessed as compound remaining at 0.5 uM after 60 mins by UV-LC/MS analysis. The format is ADME. Conditions: read-out: Stability.
Data set [9] can be described thus: Displacement of [125I]hMIP-1alpha from rat CCR1.
Data set [10] concerns the target T2, C-C chemokine receptor type 1. Kind of data set: Displacement of [125I]MIP-1alpha from CCR1 in human THP1 cells. The format is cell-based, THP-1.
The species named for the next data set is Homo sapiens. Kind of data set: Inhibition of Ca+ channel (unknown origin).
Data set [11] addresses T6, C-X-C chemokine receptor type 2 (Homo sapiens) (UniProt P25025).
T6 sequence (whole entry): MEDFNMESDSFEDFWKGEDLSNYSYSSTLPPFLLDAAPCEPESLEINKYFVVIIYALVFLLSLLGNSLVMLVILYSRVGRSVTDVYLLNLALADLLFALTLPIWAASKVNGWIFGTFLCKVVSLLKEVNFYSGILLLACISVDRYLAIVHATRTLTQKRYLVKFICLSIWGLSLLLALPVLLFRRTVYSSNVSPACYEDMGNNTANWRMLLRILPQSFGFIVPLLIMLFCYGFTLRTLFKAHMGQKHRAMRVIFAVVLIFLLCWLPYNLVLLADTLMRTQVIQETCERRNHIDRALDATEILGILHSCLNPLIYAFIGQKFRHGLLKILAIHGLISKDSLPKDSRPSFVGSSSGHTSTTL
Kind of data set: Binding affinity to CXCR2 receptor (unknown origin).

Activity calls are given as the source filed them. No cut-off for these calls is given here.

`CC(C)[C@@H](NC(=O)NCC(C)(C)O)C(=O)N1CC[C@](O)(c2ccc(Cl)cc2)C(C)(C)C1` [BMS-817399]: the 50% inhibitory concentration (IC50) was 635 nM in [1]; 42 nM in data set [2]; above 50000 nM in data set [5]; 4.2 nM in data set [6]; above 50000 nM in [9]; 1 nM in [10]. Besides, the “inhibition (INH)” value in [3] is “Not Active”. Moreover, the outcome in [4], in data set [7] and in data set [11] was inactive. Further, the remaining at 1 h, 0.5 µM in data set [8] came to 86%. For the same compound, the inhibition entry in the data set listed under Homo sapiens is “inactive”.
